According to ChEMBL document CHEMBL4622963, “Optimization of Nicotinamides as Potent and Selective IRAK4 Inhibitors with Efficacy in a Murine Model of Psoriasis” (ACS Med Chem Lett, 2020):

Columns and labels:
Homo sapiens [1] = species on record: Homo sapiens; experiment: Selectivity index, ratio of IC50 for N-terminal His6-tagged human full length recombinant LCK expressed in baculovirus infected Sf21 cells to IC50 for IRAK4 (unknown origin)
[2] = target: T1, Interleukin-1 receptor-associated kinase 4 (Homo sapiens, UniProt Q9NWZ3); experiment: Inhibition of IRAK4 in human whole blood assessed as inhibition of LTA-induced IL-6 production preincubated for 30 mins followed by LTA-stimulation and measured after 5 hrs by ELISA; assay type: tissue-based
T1 sequence (Q9NWZ3 whole entry): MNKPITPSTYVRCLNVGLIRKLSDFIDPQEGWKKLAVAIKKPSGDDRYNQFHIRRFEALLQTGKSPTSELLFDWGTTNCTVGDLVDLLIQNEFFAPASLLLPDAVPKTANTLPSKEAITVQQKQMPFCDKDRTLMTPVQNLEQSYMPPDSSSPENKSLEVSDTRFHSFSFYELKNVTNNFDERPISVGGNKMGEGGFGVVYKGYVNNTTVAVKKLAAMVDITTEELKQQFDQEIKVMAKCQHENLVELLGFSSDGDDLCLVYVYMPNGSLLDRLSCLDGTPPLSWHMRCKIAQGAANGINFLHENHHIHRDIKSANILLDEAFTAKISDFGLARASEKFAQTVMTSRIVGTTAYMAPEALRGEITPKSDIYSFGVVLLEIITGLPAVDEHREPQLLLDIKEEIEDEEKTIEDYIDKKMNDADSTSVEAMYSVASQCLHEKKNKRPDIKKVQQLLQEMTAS

[3] = target: T1, Interleukin-1 receptor-associated kinase 4; experiment: Inhibition of IRAK4 (unknown origin) using FL-IPTSPITTTYFFFKKK peptide and ATP as substrate incubated for 60 mins by fluorescence based caliper assay
[4] = Stability in human liver microsomes assessed as parent compound remaining; assay type: ADME, Microsome
[5] = target: T1, Interleukin-1 receptor-associated kinase 4; experiment: Inhibition of IRAK4 in human PBMC assessed as inhibition of LTA-induced IL-6 production preincubated for 30 mins followed by LTA-stimulation and measured after 5 hrs by ELISA; assay type: cell-based
[6] = Stability in mouse liver microsomes assessed as parent compound remaining measured after 10 mins; assay type: ADME, Microsome; settings: read-out: Stability
[7] = Permeability across apical to basolateral side in human Caco2 cells; settings: Caco-2
[8] = AUC in mouse at 3 mg/kg, po via gavage measured up to 24 hrs by LC-MS analysis; assay type: ADME, organism-based; parameters: dose 3 mg/kg, time < 24 hr, route oral; settings: in vivo
[9] = AUC in mouse at 2 mg/kg, iv administered as infusion measured up to 24 hrs by LC-MS analysis; assay type: ADME, organism-based; parameters: time < 24 hr, dose 2 mg/kg, route intravenous; settings: in vivo
[10] = Half life in mouse at 2 mg/kg, iv administered as infusion or 3 mg/kg, po via gavage measured up to 24 hrs by LC-MS analysis; assay type: ADME, organism-based; settings: in vivo
[11] = Clearance in mouse at 2 mg/kg, iv administered as infusion or 3 mg/kg, po via gavage measured up to 24 hrs by LC-MS analysis; assay type: ADME, organism-based; settings: in vivo
Homo sapiens [12] = species on record: Homo sapiens; experiment: Selectivity index, ratio of IC50 for recombinant N-terminal GST-tagged human cKit (544 to end residues) expressed in baculovirus infected Sf21 cells to IC50 for IRAK4 (unknown origin)
[13] = Oral bioavailability in mouse at 3 mg/kg administered via gavage measured up to 24 hrs by LC-MS analysis; assay type: ADME, organism-based; settings: in vivo
[14] = Volume of distribution at steady state in mouse at 2 mg/kg, iv administered as infusion or 3 mg/kg, po via gavage measured up to 24 hrs by LC-MS analysis; assay type: ADME, organism-based; settings: in vivo, read-out: Vdss
Cytochrome P450 3A4 = Cytochrome P450 3A4 (Homo sapiens, UniProt P08684); experiment: Inhibition of CYP3A4 (unknown origin); assay type: ADME
Mus musculus [15] = experiment: Protection against imiquimod-induced psoriasis in C57BL/6 mouse assessed as inhibition of skin scaling at 3 mg/kg, po dosed via gavage once daily and measured on day 6 relative to control; assay type: functional; settings: C57BL/6, po, 144 h
Mus musculus [16] = experiment: Protection against imiquimod-induced psoriasis in C57BL/6 mouse assessed as inhibition of skin erythema level at 3 mg/kg, po dosed via gavage once daily and measured on day 6 relative to control; assay type: functional; settings: C57BL/6, po, 144 h
[17] = Drug uptake in LTA-treated BALB/c mouse serum at 50 mg/kg, po treated 30 mins prior to LTA-stimulation and measured after 90 mins by LC-MS analysis; assay type: ADME, organism-based; settings: read-out: Drug uptake
[18] = Clearance in mouse at 2 mg/kg, iv administered as infusion or 10 mg/kg, po via gavage measured up to 24 hrs by LC-MS analysis; assay type: ADME, organism-based; settings: in vivo
[19] = target: T2, Interleukin-1 receptor-associated kinase 4 (Mus musculus) (UniProt Q8R4K2); experiment: In vivo Inhibition of IRAK4 in BALB/c mouse assessed as suppression of TLR2-mediated LTA-induced IL-6 level in serum at 25 mg/kg, po treated 30 mins prior to LTA-stimulation and measured after 90 mins by ELISA relative to control; assay type: functional, organism-based
T2 sequence (whole entry): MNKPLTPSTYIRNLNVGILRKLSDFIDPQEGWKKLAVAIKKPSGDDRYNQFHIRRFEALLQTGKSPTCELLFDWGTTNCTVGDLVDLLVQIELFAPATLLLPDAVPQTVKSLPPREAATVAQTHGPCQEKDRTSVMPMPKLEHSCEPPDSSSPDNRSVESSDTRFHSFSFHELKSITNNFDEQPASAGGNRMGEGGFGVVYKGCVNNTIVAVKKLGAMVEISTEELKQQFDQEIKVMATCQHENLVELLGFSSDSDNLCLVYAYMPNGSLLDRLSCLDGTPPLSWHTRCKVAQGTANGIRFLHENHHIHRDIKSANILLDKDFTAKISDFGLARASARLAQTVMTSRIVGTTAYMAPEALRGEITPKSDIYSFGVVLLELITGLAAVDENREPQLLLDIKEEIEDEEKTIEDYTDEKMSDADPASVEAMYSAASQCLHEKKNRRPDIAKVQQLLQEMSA

[20] = target: T2, Interleukin-1 receptor-associated kinase 4 (Mus musculus); experiment: In vivo Inhibition of IRAK4 in BALB/c mouse assessed as suppression of TLR2-mediated LTA-induced IL-6 level in serum at 10 mg/kg, po treated 30 mins prior to LTA-stimulation and measured after 90 mins by ELISA relative to control; assay type: functional, organism-based
[21] = AUC in mouse at 10 mg/kg, po via gavage measured up to 24 hrs by LC-MS analysis; assay type: ADME, organism-based; parameters: time < 24 hr, dose 10 mg/kg, route oral; settings: in vivo
[22] = target: T3, Interleukin-1 receptor-associated kinase 4 (Mus musculus, UniProt Q8R4K2); experiment: Inhibition of IRAK4 in mouse whole blood; assay type: tissue-based
T3 sequence (Q8R4K2 whole entry): T2 sequence (whole entry)

[23] = Drug uptake in LTA-treated BALB/c mouse serum at 25 mg/kg, po treated 30 mins prior to LTA-stimulation and measured after 90 mins by LC-MS analysis; assay type: ADME, organism-based; settings: read-out: Drug uptake
[24] = Volume of distribution at steady state in mouse at 2 mg/kg, iv administered as infusion or 10 mg/kg, po via gavage measured up to 24 hrs by LC-MS analysis; assay type: ADME, organism-based; settings: in vivo, read-out: Vdss
[25] = target: T2, Interleukin-1 receptor-associated kinase 4 (Mus musculus); experiment: In vivo Inhibition of IRAK4 in BALB/c mouse assessed as suppression of TLR2-mediated LTA-induced IL-6 level in serum at 50 mg/kg, po treated 30 mins prior to LTA-stimulation and measured after 90 mins by ELISA relative to control; assay type: functional, organism-based
[26] = Oral bioavailability in mouse at 10 mg/kg administered via gavage measured up to 24 hrs by LC-MS analysis; assay type: ADME, organism-based; settings: in vivo
[27] = Half life in mouse at 2 mg/kg, iv administered as infusion or 10 mg/kg, po via gavage measured up to 24 hrs by LC-MS analysis; assay type: ADME, organism-based; settings: in vivo
[28] = Drug uptake in LTA-treated BALB/c mouse serum at 10 mg/kg, po treated 30 mins prior to LTA-stimulation and measured after 90 mins by LC-MS analysis; assay type: ADME, organism-based; settings: read-out: Drug uptake
[29] = Time during which drug concentration exceeds IC50 for IRAK4 in mouse whole blood in mouse at 10 mg/kg, po; assay type: ADME, organism-based; settings: in vivo

Cytochrome P450 3A4, sequence (P08684 whole entry): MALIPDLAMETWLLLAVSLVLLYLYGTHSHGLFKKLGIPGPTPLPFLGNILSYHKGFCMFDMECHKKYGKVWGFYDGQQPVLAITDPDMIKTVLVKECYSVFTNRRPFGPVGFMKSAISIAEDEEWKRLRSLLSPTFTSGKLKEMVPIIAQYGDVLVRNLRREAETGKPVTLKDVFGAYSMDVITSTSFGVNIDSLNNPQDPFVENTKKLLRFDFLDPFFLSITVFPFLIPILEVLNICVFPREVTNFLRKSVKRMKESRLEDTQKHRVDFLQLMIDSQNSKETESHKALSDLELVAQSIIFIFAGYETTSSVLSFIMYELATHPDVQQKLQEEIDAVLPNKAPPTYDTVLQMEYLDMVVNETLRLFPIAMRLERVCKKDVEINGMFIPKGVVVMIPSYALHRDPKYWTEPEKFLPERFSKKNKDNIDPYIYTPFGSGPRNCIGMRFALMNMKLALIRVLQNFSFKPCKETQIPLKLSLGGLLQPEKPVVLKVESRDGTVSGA

SMILES | IC50 [2] | IC50 [3] | Stability [4] | IC50 [5] | remaining at 10 min [6] | Papp A→B [7] | Ratio IC50 (Homo sapiens [1]) | further results
CC(C)Nc1cc(Nc2ccc3ncsc3c2)ncc1C(=O)NC[C@@H](F)C(C)(C)O | 2 µM | 0.0024 µM | 92% | 0.48 µM | 86% | – | 270 | –
CNC(=O)c1cnc(Nc2ccc3ncsc3c2)cc1N[C@@H](c1ccccc1)[C@H](O)CO | – | – | 90% | – | 22% | < 15 nm/s | – | –
CCCCNC(=O)c1cnc(Nc2ccc3ncsc3c2)cc1NC(C)C | – | 0.007 µM | 55% | – | 31% | – | – | –
CC(C)Nc1cc(Nc2ccc3nonc3c2)ncc1C(=O)NC[C@@H](F)C(C)(C)O | 0.21 µM | 0.0087 µM | 93% | 0.64 µM | 89% | 38 nm/s | 190 | AUC at 24 h [8]: 4.6 µM·h; AUC at 24 h [9]: 4.7 µM·h; half-life [10]: 3.6 h; clearance [11]: 0.84 L/h/kg; Ratio IC50 (Homo sapiens [12]): 420; bioavailability [13]: 65%; Vd [14]: 3.2 L/kg
CC(C)Nc1cc(Nc2ccc3ncsc3c2)ncc1C(=O)NCCc1ccc(S(N)(=O)=O)cc1 | – | 0.0057 µM | 17% | 1.2 µM | 38% | < 15 nm/s | 280 | IC50 (Cytochrome P450 3A4): 0.9 µM
C[C@@H]1C[C@H]2[C@@H]3CCC4=CC(=O)C=C[C@]4(C)[C@@]3(F)[C@@H](O)C[C@]2(C)[C@@]1(O)C(=O)CO [DEXAMETHASONE] | – | – | – | – | – | – | – | inhibition in vivo at 3 mg/kg (Mus musculus [15]): 45%; inhibition in vivo at 3 mg/kg (Mus musculus [16]): 37%
CC(C)Nc1cc(Nc2ccn3nccc3c2)ncc1C(=O)NC[C@@H](F)C(C)(C)O | 0.65 µM | – | 78% | 0.41 µM | 85% | – | > 380 | Ratio IC50 (Homo sapiens [12]): 240
CCNC(=O)c1cnc(Nc2ccc3ncsc3c2)cc1NC(C)C | – | 0.015 µM | 74% | – | 45% | – | – | –
CC(C)(O)[C@H](F)CNC(=O)c1cnc(Nc2ccc3ncsc3c2)cc1NC1CC1 | 0.81 µM | 0.0024 µM | 90% | 0.23 µM | 89% | 81 nm/s | 170 | concentration at 1.5 h [17]: 9.6 µM; clearance [18]: 2.82 L/h/kg; inhibition [19]: 95%; inhibition [20]: 50%; AUC at 24 h [21]: 3.3 µM·h; IC50 [22]: 0.24 µM; AUC at 24 h [9]: 1.6 µM·h; concentration at 1.5 h [23]: 4.5 µM; Vd [24]: 2.1 L/kg; inhibition [25]: 99%; bioavailability [26]: 40%; half-life [27]: 2.2 h; concentration at 1.5 h [28]: 0.41 µM; T>IC50 [29]: <= 3 hr
CC(C)(O)CCNC(=O)c1cnc(Nc2ccc3ncsc3c2)cc1NC1CC1 | 0.9 µM | – | 65% | 0.29 µM | 99% | – | 200 | –
CC(C)Nc1cc(Nc2ccc3ncsc3c2)ncc1C(=O)NCCCO | – | 0.024 µM | 84% | 6.9 µM | 87% | – | 16 | –
CNC(=O)c1cnc(Nc2ccc3ncsc3c2)cc1NC(C)C | – | 0.021 µM | – | 4.5 µM | – | 210 nm/s | 28 | –

More lines, main results first:

IC50 [2] | IC50 [3] | Stability [4] | IC50 [5] | remaining at 10 min [6] | Papp A→B [7] | SMILES | Ratio IC50 (Homo sapiens [1]) | further results
1.1 µM | – | 79% | 0.29 µM | 68% | – | CC(C)Nc1cc(Nc2ccc3ncsc3c2)ncc1C(=O)NCCC(C)(C)O | 104 | –
– | 0.019 µM | – | 2.9 µM | – | – | CC(C)Nc1cc(Nc2ccc3ncsc3c2)ncc1C(=O)NC[C@@H](C)C(C)(C)O | – | –
2.8 µM | – | 71% | 0.57 µM | 61% | – | CC(C)Nc1cc(Nc2ccc3ncsc3c2)ncc1C(=O)NCC(F)(F)C(C)(C)O | 320 | –
12 µM | 0.008 µM | 92% | 1.7 µM | 78% | – | Cc1nc2ccc(Nc3cc(NC(C)C)c(C(=O)NC[C@@H](F)C(C)(C)O)cn3)cc2s1 | 3500 | Ratio IC50 (Homo sapiens [12]): 6200
1.16 µM | – | 74% | 0.32 µM | 80% | – | CC(C)Nc1cc(Nc2ccc3nsnc3c2)ncc1C(=O)NC[C@@H](F)C(C)(C)O | 93 | Ratio IC50 (Homo sapiens [12]): > 15000
– | – | – | 0.73 µM | – | – | CC(C)(O)[C@@H](F)CNC(=O)c1cnc(Nc2ccc3ncsc3c2)cc1NC1CC1 | 110 | –
– | 0.012 µM | 52% | – | 32% | – | CCCNC(=O)c1cnc(Nc2ccc3ncsc3c2)cc1NC(C)C | – | –
– | – | 46% | – | 29% | < 15 nm/s | CNC(=O)c1cnc(Nc2ccc3ncsc3c2)cc1N[C@H](CO)Cc1ccccc1 | – | –
